Experiment [1] has as its target T1, 5-HT1B (Homo sapiens, UniProt P28222).
T1 construct: purchased NIMH Psychoactive Drug Screening Program (PDSP)
Description: PDSP primary binding 5-HT1B. As to conditions: 1.5 h; primary binding, 10,000 nM; last figure of the line = mean of the 4 before it; read-out: 5-HT1B, PDSP raw data, mean. How it is done:
(§1) To determine if any off-target receptor-binding effects are present, all the novel ligands were sent to the National Institute of Mental Health (NIMH), Psychoactive Drug Screening Program (PDSP). The ligands were screened over a panel of 47 receptors, ion channels, and transporters to determine any other possible interactions with […]. The hERG-binding was also determined. […] No binding of the test compounds to calcium channels was observed. […] It is necessary to screen the compounds for hERG-binding during the early process of drug discovery. The unintentional binding of many drugs to hERG can cause blockade of hERG K+ channels in the heart, which can cause many side effects including cardiac arrhythmias and sudden death. […] All of the α5 imidazodiazepines were tested for hERG-binding.
(§2) The NIMH PDSP assay protocol book [https://kidbdev.med.unc.edu/databases/PDSP%20Protocols%20II%202013-03-28.pdf accessed on 23 April 2023]. describes the protocols for primary and secondary radio-ligand binding assays. These assays were carried out in a final volume of 125 µL per well in the appropriate binding buffer.
(§3) The binding of a ligand to a receptor, ion channel, or transporter was determined in the […] of 10 µM of the appropriate reference compound. […] Plates were incubated in the dark for 90 min at rt, and the reactions were stopped by vacuum filtration onto 0.3% polyethyleneimine (PEI) soaked 96-well filter mats using a 96-well Filtermateharvester. This was followed by three washes with cold PBS buffer. Radioactivity was then counted on a Microbeta counter. Nonlinear regression was used to analyze the data with N = 6 replicates.

Experiment [2] concerns the target T2, 5-HT1A (Homo sapiens, UniProt P08908).
T2 construct: purchased NIMH Psychoactive Drug Screening Program (PDSP)
T2 sequence (P08908 1-422): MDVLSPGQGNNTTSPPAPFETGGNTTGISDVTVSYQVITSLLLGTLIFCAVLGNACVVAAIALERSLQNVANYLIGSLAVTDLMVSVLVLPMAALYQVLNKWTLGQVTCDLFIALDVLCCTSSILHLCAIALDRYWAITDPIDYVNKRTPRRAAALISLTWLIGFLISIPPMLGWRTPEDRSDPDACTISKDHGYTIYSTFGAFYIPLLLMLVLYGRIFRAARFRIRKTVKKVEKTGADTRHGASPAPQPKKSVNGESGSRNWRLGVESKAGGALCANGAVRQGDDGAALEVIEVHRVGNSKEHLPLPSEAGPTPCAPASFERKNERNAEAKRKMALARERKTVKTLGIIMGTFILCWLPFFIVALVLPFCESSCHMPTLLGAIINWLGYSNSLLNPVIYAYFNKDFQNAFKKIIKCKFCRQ
Kind of experiment: PDSP primary binding 5-HT1A. As to conditions: 1.5 h; primary binding, 10,000 nM; last figure of the line = mean of the 4 before it; read-out: 5-HT1A, PDSP raw data, mean. How it is done: as §1, §2, §3

In experiment [3] the target is T3, Alpha3Beta4 (Rattus norvegicus, UniProt P04757+P12392).
T3 construct: purchased NIMH Psychoactive Drug Screening Program (PDSP)
T3 sequence (P04757 26-499): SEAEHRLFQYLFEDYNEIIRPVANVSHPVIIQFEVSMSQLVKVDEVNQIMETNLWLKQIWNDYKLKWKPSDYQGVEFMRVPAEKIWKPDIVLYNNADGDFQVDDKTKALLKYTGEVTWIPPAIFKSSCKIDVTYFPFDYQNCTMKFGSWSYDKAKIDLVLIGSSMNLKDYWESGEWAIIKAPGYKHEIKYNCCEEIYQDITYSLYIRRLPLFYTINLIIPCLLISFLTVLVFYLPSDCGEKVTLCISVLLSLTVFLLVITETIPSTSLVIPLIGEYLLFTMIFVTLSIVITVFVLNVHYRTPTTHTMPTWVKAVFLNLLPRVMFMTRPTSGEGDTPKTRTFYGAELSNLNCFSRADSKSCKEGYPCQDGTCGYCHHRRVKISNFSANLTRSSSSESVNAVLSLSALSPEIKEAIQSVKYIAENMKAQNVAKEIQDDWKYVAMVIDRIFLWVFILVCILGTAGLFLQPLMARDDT
T3 sequence (P12392 21-495): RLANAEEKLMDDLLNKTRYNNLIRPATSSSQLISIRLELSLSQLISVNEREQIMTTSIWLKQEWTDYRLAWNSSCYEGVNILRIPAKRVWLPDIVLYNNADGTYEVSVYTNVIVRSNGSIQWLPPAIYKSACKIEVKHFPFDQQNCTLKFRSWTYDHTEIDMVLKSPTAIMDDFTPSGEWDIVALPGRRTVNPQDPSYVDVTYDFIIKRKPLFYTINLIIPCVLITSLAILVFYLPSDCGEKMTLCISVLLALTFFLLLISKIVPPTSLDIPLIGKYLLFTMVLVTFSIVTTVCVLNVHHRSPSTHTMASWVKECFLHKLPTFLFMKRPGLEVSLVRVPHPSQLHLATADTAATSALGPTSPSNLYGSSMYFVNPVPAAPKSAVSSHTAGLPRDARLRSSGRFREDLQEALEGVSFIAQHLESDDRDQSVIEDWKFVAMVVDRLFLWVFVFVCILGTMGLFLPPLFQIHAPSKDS
Description: PDSP primary binding Alpha3Beta4. As to conditions: primary binding, 10,000 nM; last figure of the line = mean of the 4 before it; read-out: Alpha3Beta4, PDSP raw data, mean. How it is done: as §1, §2, §3

In experiment [4] the target is T4, NET (Homo sapiens, UniProt P23975).
T4 construct: purchased NIMH Psychoactive Drug Screening Program (PDSP)
T4 sequence (P23975 whole entry): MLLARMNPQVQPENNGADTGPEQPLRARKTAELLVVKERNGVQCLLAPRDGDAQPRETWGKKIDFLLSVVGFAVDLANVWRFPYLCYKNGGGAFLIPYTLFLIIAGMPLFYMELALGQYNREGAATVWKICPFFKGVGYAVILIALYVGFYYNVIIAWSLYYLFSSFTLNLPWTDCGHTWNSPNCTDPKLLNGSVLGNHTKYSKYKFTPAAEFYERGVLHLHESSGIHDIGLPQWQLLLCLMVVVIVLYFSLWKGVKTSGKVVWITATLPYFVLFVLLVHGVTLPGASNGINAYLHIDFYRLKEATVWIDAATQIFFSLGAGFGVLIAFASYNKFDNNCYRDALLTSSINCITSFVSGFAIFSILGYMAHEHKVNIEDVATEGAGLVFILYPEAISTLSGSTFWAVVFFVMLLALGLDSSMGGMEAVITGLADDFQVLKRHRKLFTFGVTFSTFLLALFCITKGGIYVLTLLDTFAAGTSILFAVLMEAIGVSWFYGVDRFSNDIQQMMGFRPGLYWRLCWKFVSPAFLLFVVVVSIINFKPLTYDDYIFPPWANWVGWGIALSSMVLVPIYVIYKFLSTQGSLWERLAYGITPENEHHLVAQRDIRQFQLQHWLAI
Description: PDSP primary binding NET. The following applies: primary binding, 10,000 nM; last figure of the line = mean of the 4 before it; read-out: NET, PDSP raw data, mean. How it is done:
as §1, §2, §3

For experiment [5], the target named is T5, M4 D (Homo sapiens, UniProt P08173, A203G/Y113C).
T5 construct: purchased NIMH Psychoactive Drug Screening Program (PDSP)
T5 sequence (P08173 1-479 Y113C/A203G): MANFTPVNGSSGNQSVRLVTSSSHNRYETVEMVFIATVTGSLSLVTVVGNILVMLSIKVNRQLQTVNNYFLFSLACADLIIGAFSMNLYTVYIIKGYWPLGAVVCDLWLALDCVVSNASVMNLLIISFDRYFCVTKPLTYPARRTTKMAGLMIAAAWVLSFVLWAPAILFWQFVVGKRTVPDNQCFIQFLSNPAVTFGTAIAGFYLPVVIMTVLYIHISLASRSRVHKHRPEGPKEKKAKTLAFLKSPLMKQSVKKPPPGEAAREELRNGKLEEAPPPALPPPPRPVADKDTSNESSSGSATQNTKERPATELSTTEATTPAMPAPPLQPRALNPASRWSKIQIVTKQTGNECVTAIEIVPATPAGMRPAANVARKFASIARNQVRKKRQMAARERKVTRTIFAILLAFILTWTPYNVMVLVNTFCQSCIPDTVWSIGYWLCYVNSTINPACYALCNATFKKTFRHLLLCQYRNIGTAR
Description: PDSP primary binding M4 D. The following applies: primary binding, 10,000 nM; last figure of the line = mean of the 4 before it; read-out: M4 D, PDSP raw data, mean. How it is done: as §1, §2, §3

Experiment [6] deals with T6, D4 (Homo sapiens, UniProt P21917).
T6 construct: purchased NIMH Psychoactive Drug Screening Program (PDSP)
T6 sequence (P21917 1-419): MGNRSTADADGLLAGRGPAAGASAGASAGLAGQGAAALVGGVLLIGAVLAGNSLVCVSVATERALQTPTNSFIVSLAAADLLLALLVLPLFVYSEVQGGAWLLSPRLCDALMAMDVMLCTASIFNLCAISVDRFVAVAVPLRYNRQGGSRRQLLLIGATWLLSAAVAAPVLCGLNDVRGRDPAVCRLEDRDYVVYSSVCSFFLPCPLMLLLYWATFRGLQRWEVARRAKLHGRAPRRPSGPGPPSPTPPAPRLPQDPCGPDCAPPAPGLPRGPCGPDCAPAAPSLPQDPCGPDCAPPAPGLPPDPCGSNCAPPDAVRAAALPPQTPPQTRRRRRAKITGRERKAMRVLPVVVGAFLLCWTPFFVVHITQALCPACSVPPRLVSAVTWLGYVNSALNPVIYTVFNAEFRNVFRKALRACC
Kind of experiment: PDSP primary binding D4. As to conditions: 1.5 h; primary binding, 10,000 nM; last figure of the line = mean of the 4 before it; read-out: D4, PDSP raw data, mean. How it is done:
as §1, §2, §3

In experiment [7] the target is T7, 5-HT4 (Homo sapiens, UniProt Q13639).
T7 construct: purchased NIMH Psychoactive Drug Screening Program (PDSP)
T7 sequence (Q13639 whole entry): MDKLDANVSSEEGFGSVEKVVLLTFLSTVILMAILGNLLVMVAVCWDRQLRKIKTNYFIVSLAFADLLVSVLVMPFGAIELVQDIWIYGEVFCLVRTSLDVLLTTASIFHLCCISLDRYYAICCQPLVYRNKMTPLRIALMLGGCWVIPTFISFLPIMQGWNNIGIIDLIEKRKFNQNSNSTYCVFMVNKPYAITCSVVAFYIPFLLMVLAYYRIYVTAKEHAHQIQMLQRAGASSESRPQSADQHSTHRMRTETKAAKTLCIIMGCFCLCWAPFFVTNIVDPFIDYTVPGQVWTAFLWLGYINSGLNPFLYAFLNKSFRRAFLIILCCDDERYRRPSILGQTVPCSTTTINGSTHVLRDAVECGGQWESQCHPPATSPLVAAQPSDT
Description: PDSP primary binding 5-HT4. The following applies: 1.5 h; primary binding, 10,000 nM; last figure of the line = mean of the 4 before it; read-out: 5-HT4, PDSP raw data, mean. How it is done: as §1, §2, §3

For experiment [8], the system named is NR2B. Description: PDSP primary binding NR2B. The following applies: primary binding, 10,000 nM; last figure of the line = mean of the 4 before it. How it is done: as §1, §2, §3
Experiment [9] relates to Ca channel human. Description: PDSP primary binding Ca channel. As to conditions: primary binding, 10,000 nM; last figure of the line = mean of the 4 before it. How it is done: as §1, §2, §3

Each structure is given as a SMILES string.

T1 sequence (P28222 whole entry): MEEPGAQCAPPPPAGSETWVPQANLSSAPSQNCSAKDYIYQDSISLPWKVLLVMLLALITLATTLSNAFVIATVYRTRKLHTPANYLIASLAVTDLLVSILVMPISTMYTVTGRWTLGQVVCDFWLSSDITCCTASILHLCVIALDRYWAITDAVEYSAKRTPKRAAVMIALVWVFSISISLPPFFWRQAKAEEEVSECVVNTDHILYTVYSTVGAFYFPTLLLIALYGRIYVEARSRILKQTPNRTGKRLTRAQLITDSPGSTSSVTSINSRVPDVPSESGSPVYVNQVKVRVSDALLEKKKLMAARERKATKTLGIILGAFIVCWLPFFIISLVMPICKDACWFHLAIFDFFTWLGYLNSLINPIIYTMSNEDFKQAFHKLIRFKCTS

Take `CCc1noc(-c2ncn3c2[C@@H](C)N=C(c2ccccc2F)c2cc(-c4ccccc4)ccc2-3)n1` [Compound 35, (R)-3-Ethyl-5-(6-(2′-fluorophenyl)-4-methyl-8-phenyl-4H-benzo[f]imidazo[1,5-a][1,4]diazepin-3-yl)-1,2,4-oxadiazole]: the inhibition at 10 µM in experiment [1] stood at 11.6%; in experiment [2], 28.9%; in experiment [3] it was 12%; in experiment [4], 10.2%; in [5], 15.7%; in experiment [6], 6.05%. In addition, the inhibition at 10 µM in experiment [7] was -0.48%. For the same compound, in experiment [8], the “NR2B, PDSP raw data, mean” value came out at 24.81%. In experiment [9], the “Ca channel human, PDSP raw data, mean” value was 61.85%.
As for `C#Cc1ccc2c(c1)C(c1ccccn1)=N[C@@H](C)c1c(C(=O)N(C)C)ncn1-2` [Compound 31, (S)-8-Ethynyl-N,N,4-trimethyl-6-(pyridin-2′-yl)-4H-benzo[f]imidazo[1,5-a][1,4]diazepine-3-carboxamide], the inhibition at 10 µM in experiment [1] was -0.27%; in experiment [2], -0.48%; in experiment [3] it was -0.5%; in experiment [4], 10.2%; in experiment [5], 56.8%; in experiment [6] it was -0.38%. Further, in [7], the inhibition at 10 µM was -0.81%. Moreover, in experiment [8], the “NR2B, PDSP raw data, mean” value is -10.18%. Also, the “Ca channel human, PDSP raw data, mean” value in experiment [9] is 4.19%.
As for `CC(C)c1noc(-c2ncn3c2[C@@H](C)N=C(c2ccccc2F)c2cc(Cl)ccc2-3)n1` [Compound 37, (R)-5-(8-Chloro-6-(2′-fluorophenyl)-4-methyl-4H-benzo[f]imidazo[1,5-a][1,4]diazepin-3-yl)-3-isopropyl-1,2,4-oxadiazole], the inhibition at 10 µM in experiment [1] is 10.4%; in experiment [2], -6%; in experiment [3], 18.8%; in [4] it was 9.04%; in [5] it was -19.7%; in experiment [6] it was -10.1%. Also, in [7], the inhibition at 10 µM stood at 48%. The “NR2B, PDSP raw data, mean” value in [8] stood at 34.46%. In experiment [9], the “Ca channel human, PDSP raw data, mean” value was determined as 7.04%.
In the case of `C#Cc1ccc2c(c1)C(c1ccccn1)=N[C@@H](C)c1c(C(=O)NC)ncn1-2` [Compound 23, (S)-8-Ethynyl-N,4-dimethyl-6-(pyridin-2′-yl)-4H-benzo[f]imidazo[1,5-a][1,4]diazepine-3-carboxamide], the inhibition at 10 µM in experiment [1] is -3.82%; in [2] it was 2.23%; in experiment [3], 1.99%; in experiment [4], 2.62%; in [5] it was 50.5%; in experiment [6], 3.79%. Also, in [7], the inhibition at 10 µM was -1.06%. Moreover, the “NR2B, PDSP raw data, mean” value in [8] is given as -22.69%. Moreover, the “Ca channel human, PDSP raw data, mean” value in [9] came to 14.91%.
